In patent US20240158446A1, “CYCLIC COMPOUND HAVING SELECTIVE INHIBITORY ACTION ON KRAS OVER HRAS AND NRAS” (CHUGAI SEIYAKU KABUSHIKI KAISHA, priority 2021, published 2024):
Like-named read-outs stand apart in the source and are kept apart here. Where a SMILES comes first, the peptide text is derived from it. Bridges are numbered along the chain shown (N, C = ends). [ ]: non-standard residue; d: D form. The star is where a group is joined. hPhe(3-Cl-4-CF3) = N[C@@H](CCc1ccc(C(F)(F)F)c(Cl)c1)C(=O)O; NPrPhe(4-CF3) = CCCN[C@@H](Cc1ccc(C(F)(F)F)cc1)C(=O)O; Morpholine(3S-CO) = O=C(O)[C@@H]1COCCN1; NMeGly(cPent) = CN[C@H](C(=O)O)C1CCCC1; Pro(4,4-F2) = O=C(O)[C@@H]1CC(F)(F)CN1; NMeGly(cBu) = CN[C@H](C(=O)O)C1CCC1; NMeD = CN[C@@H](CC(=O)O)C(=O)O; NMeL = CN[C@@H](CC(C)C)C(=O)O; Morpholide = C1CN(*)CCO1; NMeA = CN[C@@H](C)C(=O)O; Ac5c = NC1(C(=O)O)CCCC1; Aze = O=C(O)[C@@H]1CCN1; Sar = CNCC(=O)O

Columns and labels:
[1] = molecular target: GDP-bound NRAS wild-type protein (Homo sapiens, UniProt P01111); assay: Binding to NRAS by surface plasmon resonance (SPR), Single Cycle Kinetics; settings: for NRAS/KRAS (ratio of KD value for NRAS to KD value for KRAS) / NRAS/KRAS (ratio of KD value with respect to NRAS to KD value with respect to KRAS): SPR, GDP-bound NRAS wild-type protein vs GDP-bound KRAS wild-type protein
Chain of GDP-bound NRAS wild-type protein (P01111 whole entry): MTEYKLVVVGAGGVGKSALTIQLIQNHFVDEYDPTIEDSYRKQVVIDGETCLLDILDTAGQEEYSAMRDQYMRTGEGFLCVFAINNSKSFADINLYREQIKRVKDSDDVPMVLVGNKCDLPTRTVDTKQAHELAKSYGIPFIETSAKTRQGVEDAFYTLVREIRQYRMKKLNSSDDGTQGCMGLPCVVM

[2] = molecular target: GDP-bound HRAS wild-type protein (Homo sapiens, UniProt P01112); assay: Binding to HRAS by surface plasmon resonance (SPR), Single Cycle Kinetics; settings: for HRAS/KRAS (ratio of KD value for HRAS to KD value for KRAS) / HRAS/KRAS (ratio of KD value with respect to HRAS to KD value with respect to KRAS): SPR, GDP-bound HRAS wild-type protein vs GDP-bound KRAS wild-type protein
Chain of GDP-bound HRAS wild-type protein (P01112 whole entry): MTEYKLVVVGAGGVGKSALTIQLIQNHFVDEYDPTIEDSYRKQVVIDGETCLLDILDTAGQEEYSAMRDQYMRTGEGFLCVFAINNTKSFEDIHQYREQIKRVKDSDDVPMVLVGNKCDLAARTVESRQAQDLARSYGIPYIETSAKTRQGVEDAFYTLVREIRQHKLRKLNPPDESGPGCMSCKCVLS

[3] = molecular target: GDP-bound KRAS wild-type protein (Homo sapiens, UniProt P01116); assay: Binding to KRAS by surface plasmon resonance (SPR), Single Cycle Kinetics; settings: GDP-bound KRAS wild-type protein, read-out: KRAS KD
Chain of GDP-bound KRAS wild-type protein (P01116 whole entry): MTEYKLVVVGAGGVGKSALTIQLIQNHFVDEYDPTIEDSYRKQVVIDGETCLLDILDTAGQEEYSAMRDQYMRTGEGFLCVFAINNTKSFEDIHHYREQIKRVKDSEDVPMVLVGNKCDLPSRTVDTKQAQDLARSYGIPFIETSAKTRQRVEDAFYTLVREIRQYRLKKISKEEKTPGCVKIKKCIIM

[4] = SPR, Single Cycle Kinetics, 1:1 binding model
[5] = SPR Single Cycle Kinetics, 1:1 binding model

SMILES	NRAS/KRAS (ratio of KD value with respect to NRAS to KD value with respect to KRAS) [1]	HRAS/KRAS (ratio of KD value with respect to HRAS to KD value with respect to KRAS) [2]	Kd [3, 5] [nM]	NRAS/KRAS (ratio of KD value for NRAS to KD value for KRAS) [1]	HRAS/KRAS (ratio of KD value for HRAS to KD value for KRAS) [2]	further results
CCO[C@@H]1C[C@H]2C(=O)NC3(CCCC3)C(=O)N(C)[C@@H](C3CCCC3)C(=O)N(C)[C@H](C(=O)N(C)C)CC(=O)N(C)[C@@H](CC)C(=O)N[C@@H]([C@@H](C)CC)C(=O)N(C)CC(=O)N(C)[C@H]3C[C@H](C)C(C)CN(C3=O)[C@@H](Cc3ccc(C(F)(F)F)cc3)C(=O)N(C)CC(=O)N[C@@H](CCc3cc(F)c(C(F)(F)F)c(F)c3)C(=O)N2C1 (stereo partly drawn) [PP1347]						NRAS/KRAS (ratio of KD value for NRAS to KD value for KRAS) ([1]; KD ratio class): B (a compound having 3 or more and less than 10 is denoted as B); HRAS/KRAS (ratio of KD value for HRAS to KD value for KRAS) ([2]; KD ratio class): B (a compound having 3 or more and less than 10 is denoted as B); Kd [3, 4]: 0.017 nM
CCO[C@@H]1C[C@H]2C(=O)NC3(CCC3)C(=O)N(C)[C@@H](C3CCCC3)C(=O)N(C)[C@H](C(=O)N3CCOCC3)CC(=O)N(C)[C@@H](COC)C(=O)N[C@@H]([C@@H](C)CC)C(=O)N(C)CC(=O)N(C)[C@H]3CCCCCN(C3=O)[C@@H](Cc3ccc(C(F)(F)F)cc3)C(=O)N(C)CC(=O)N[C@@H](CCc3cc(F)c(C(F)(F)F)c(F)c3)C(=O)N2C1 [PP0689]	B (a compound having 3 or more and less than 10 is denoted as B)	B (a compound having 3 or more and less than 10 is denoted as B)	0.3			
CCCN1C(=O)CN(C)C(=O)CNC(=O)[C@H]([C@@H](C)CC)NC(=O)[C@H](CC(C)C)N(C)C(=O)C[C@@H](C(=O)N(C)C)N(C)C(=O)[C@H](C2CCCC2)N(C)C(=O)C2(CCCC2)NC(=O)[C@@H]2CC(F)(F)CN2C(=O)[C@H](CCc2ccc(C(F)(F)F)c(Cl)c2)NC(=O)CN(C)C(=O)[C@@H]1Cc1ccc(C(F)(F)F)cc1 [PP0419] ([NMeL]IG[Sar][NPrPhe(4-CF3)][Sar][hPhe(3-Cl-4-CF3)][Pro(4,4-F2)][Ac5c][NMeGly(cPent)][NMeD]-NMe2; lactam N-11)	B (a compound having 3 or more and less than 10 is denoted as B)	C (A compound having a KD ratio of 0.1 or more and less than 3 is denoted as C)	0.067			
CC[C@H](C)[C@@H]1NC(=O)[C@H](CC(C)C)N(C)C(=O)C[C@@H](C(=O)N2CCCCC2)N(C)C(=O)[C@H](C2CCCC2)N(C)C(=O)C2(CCCC2)NC(=O)[C@@H]2CCCN2C(=O)[C@H](CCc2cc(F)c(C(F)(F)F)c(F)c2)NC(=O)CN(C)C(=O)[C@H](Cc2ccc(C(F)(F)F)cc2)N2CCCCC[C@@H](C2=O)N(C)C(=O)CN(C)C1=O [PP0510]	B (a compound having 3 or more and less than 10 is denoted as B)	B (a compound having 3 or more and less than 10 is denoted as B)	12			
CCC[C@H]1C(=O)N[C@@H]([C@@H](C)CC)C(=O)N(C)CC(=O)N(C)[C@H]2C/C=C\CCN(C2=O)[C@@H](Cc2ccc(C)cc2)C(=O)N(C)CC(=O)N[C@@H](CCc2ccc(C(F)(F)F)c(Cl)c2)C(=O)N2C[C@H](OCC)C[C@H]2C(=O)NC2(CC(C)(C)C2)C(=O)N(C)[C@@H](CC(C)(C)C)C(=O)N(C)[C@H](C(=O)N(C)C)CC(=O)N1C [PP2230]				A (a compound having 10 or more and less than 20 is denoted as A)	A (a compound having 10 or more and less than 20 is denoted as A)	Kd ([3]; SPR, Single Cycle Kinetics): 0.082 nM
CCCN1C(=O)[C@@H]2CCN2C(=O)[C@H](C)N(C)C(=O)[C@H]([C@@H](C)CC)NC(=O)[C@H](CC(C)C)N(C)C(=O)C[C@@H](C(=O)N2CCOCC2)N(C)C(=O)[C@H](C2CCCC2)N(C)C(=O)C2(CCCC2)NC(=O)[C@@H]2COCCN2C(=O)[C@H](CCc2ccc(C(F)(F)F)c(Cl)c2)NC(=O)CN(C)C(=O)[C@@H]1Cc1ccc(C(F)(F)F)cc1 [PP0286] ([NMeL]I[NMeA][Aze][NPrPhe(4-CF3)][Sar][hPhe(3-Cl-4-CF3)][Morpholine(3S-CO)][Ac5c][NMeGly(cPent)][NMeD]-Morpholide; lactam N-11)			0.52	C (A compound having a KD ratio of 0.1 or more and less than 3 is denoted as C)	B (a compound having 3 or more and less than 10 is denoted as B)	
CCC[C@H]1C(=O)N[C@@H]([C@@H](C)CC)C(=O)N(C)CC(=O)N(C)[C@H]2C/C=C\CCN(C2=O)[C@@H](Cc2ccc(C(F)(F)F)cc2)C(=O)N(C)CC(=O)N[C@@H](CCc2ccc(C(F)(F)F)c(Cl)c2)C(=O)N2C[C@H](OCC)C[C@H]2C(=O)NC2(CC(C)(C)C2)C(=O)N(C)[C@@H](CC(F)(F)F)C(=O)N(C)[C@H](C(=O)N(C)C)CC(=O)N1C [PP2975]				A (a compound having 10 or more and less than 20 is denoted as A)	A (a compound having 10 or more and less than 20 is denoted as A)	Kd ([3]; SPR, Single Cycle Kinetics): 0.96 nM
CCCN1C(=O)CN(C)C(=O)CN(C)C(=O)[C@H]([C@@H](C)CC)NC(=O)[C@H](C2CCC2)N(C)C(=O)C[C@@H](C(=O)N2CCOCC2)N(C)C(=O)[C@H](C2CCCC2)N(C)C(=O)C2(CCCC2)NC(=O)[C@@H]2CCCN2C(=O)[C@H](CCc2ccc(C(F)(F)F)c(Cl)c2)NC(=O)CN(C)C(=O)[C@@H]1Cc1ccc(C(F)(F)F)cc1 [PP0188] ([NMeGly(cBu)]I[Sar][Sar][NPrPhe(4-CF3)][Sar][hPhe(3-Cl-4-CF3)]P[Ac5c][NMeGly(cPent)][NMeD]-Morpholide; lactam N-11)			0.25	B (a compound having 3 or more and less than 10 is denoted as B)	C (A compound having a KD ratio of 0.1 or more and less than 3 is denoted as C)	
CCC[C@H]1C(=O)N[C@@H]([C@@H](C)CC)C(=O)N(C)CC(=O)N(C)[C@H]2C/C=C\CCN(C2=O)[C@@H](Cc2ccc(C(F)(F)F)cc2)C(=O)N(C)CC(=O)N[C@@H](CCc2cc(F)c(C(F)(F)F)c(F)c2)C(=O)N2C[C@H](OCC)C[C@H]2C(=O)NC2(CCC2)C(=O)N(C)[C@@H](C2CCCC2)C(=O)N(C)[C@H](C(=O)N(C)CCOC)CC(=O)N1C [PP1331, (2S,8S,12R,14S,20S,23S,27S,30S,36S,38Z)-20-cyclopentyl-8-[2-[3,5-difluoro-4-(trifluoromethyl)phenyl]ethyl]-12-ethoxy-N-(2-methoxyethyl)-N,4,19,22,26,32,35-heptamethyl-30-[(1S)-1-methylpropyl]-3,6,9,15,18,21,25,28,31,34,42-undecaoxo-27-propyl-2-[[4-(trifluoromethyl)phenyl]methyl]spiro[1,4,7,10,16,19,22,26,29,32,35-undecazatricyclo[34.5.1.0^10,14]dotetracont-38-ene-17,1′-cyclobutane]-23-carboxamide]						NRAS/KRAS (ratio of KD value for NRAS to KD value for KRAS) ([1]; KD ratio class): A (a compound having 10 or more and less than 20 is denoted as A); HRAS/KRAS (ratio of KD value for HRAS to KD value for KRAS) ([2]; KD ratio class): A (a compound having 10 or more and less than 20 is denoted as A); Kd [3, 4]: 0.08 nM
CCC(CC)[C@H]1C(=O)N(C)[C@H](C(=O)N(C)C)CC(=O)N(C)[C@@H](COC)C(=O)N[C@@H]([C@@H](C)CC)C(=O)N(C)CC(=O)N(C)[C@H]2C/C=C\CCN(C2=O)[C@@H](Cc2ccc(C(F)(F)F)cc2)C(=O)N(C)CC(=O)N[C@@H](CCc2cc(F)c(C(F)(F)F)c(F)c2)C(=O)N2CCCC[C@H]2C(=O)NC2(CC(C)(C)C2)C(=O)N1C [PP2916]			1.3			NRAS/KRAS (ratio of KD value with respect to GDP-bound NRAS wild-type protein to KD value with respect to KRAS) ([1]; SPR KD ratio NRAS/KRAS, class symbols): A (a compound having 10 or more and less than 20 is denoted as A); HRAS/KRAS (ratio of KD value with respect to GDP-bound HRAS wild-type protein to KD value with respect to KRAS) ([2]; SPR KD ratio HRAS/KRAS, class symbols): A (a compound having 10 or more and less than 20 is denoted as A)
CCO[C@@H]1C[C@H]2C(=O)NC3(CCC3)C(=O)N(C)[C@@H](C3CCCC3)C(=O)N(C)[C@H](C(=O)N(C)C)CC(=O)N(C)[C@@H](Cc3cccc(F)c3)C(=O)N[C@@H]([C@@H](C)CC)C(=O)N(C)CC(=O)N(C)[C@H]3C/C=C\CCN(C3=O)[C@@H](Cc3ccc(C(F)(F)F)cc3)C(=O)N(C)CC(=O)N[C@@H](CCc3cc(F)c(C(F)(F)F)c(F)c3)C(=O)N2C1 [PP1126, (2S,8S,12R,14S,20S,23S,27S,30S,36S,38Z)-20-cyclopentyl-8-[2-[3,5-difluoro-4-(trifluoromethyl)phenyl]ethyl]-12-ethoxy-27-[(3-fluorophenyl)methyl]-N,N,4,19,22,26,32,35-octamethyl-30-[(1S)-1-methylpropyl]-3,6,9,15,18,21,25,28,31,34,42-undecaoxo-2-[[4-(trifluoromethyl)phenyl]methyl]spiro[1,4,7,10,16,19,22,26,29,32,35-undecazatricyclo[34.5.1.0^10,14]dotetracont-38-ene-17,1′-cyclobutane]-23-carboxamide]				A (a compound having 10 or more and less than 20 is denoted as A)	A (a compound having 10 or more and less than 20 is denoted as A)	Kd ([3]; SPR, Single Cycle Kinetics): 0.089 nM
CC[C@H](C)[C@@H]1NC(=O)[C@H](CC(C)C)N(C)C(=O)C[C@@H](C(=O)N(C)C)N(C)C(=O)[C@H](C2CCCC2)N(C)C(=O)C2(CCCC2)NC(=O)[C@@H]2CCCN2C(=O)[C@H](CCc2cc(F)c(C(F)(F)F)c(F)c2)NC(=O)CN(C)C(=O)[C@H](Cc2ccc(C(F)(F)F)cc2)N2CCCC[C@@H](C2=O)N(C)C(=O)CN(C)C1=O [PP0569]	C (A compound having a KD ratio of 0.1 or more and less than 3 is denoted as C)	B (a compound having 3 or more and less than 10 is denoted as B)	0.034			
